In one experiment the target is T1, human RORγ (Homo sapiens, UniProt P51449).
T1 construct: human, NM_005060.3 and from Ser253 to Lys518; expressed in transfected cells; host or cells: CHO cells (transient co-transfection with pG5-Luc reporter)
T1 sequence (P51449 253-518): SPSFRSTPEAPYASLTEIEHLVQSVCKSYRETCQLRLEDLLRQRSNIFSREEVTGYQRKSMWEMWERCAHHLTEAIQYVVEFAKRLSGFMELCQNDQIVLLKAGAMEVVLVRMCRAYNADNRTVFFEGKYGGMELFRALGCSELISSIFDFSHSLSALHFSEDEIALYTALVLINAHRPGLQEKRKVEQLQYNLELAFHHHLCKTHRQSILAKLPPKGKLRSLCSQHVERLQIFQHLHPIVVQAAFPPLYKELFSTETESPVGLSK
Put plainly: Luciferase reporter gene assay of inhibitory effect against RORγ transcriptional activity (GAL4-hRORγ plasmid in CHO cells). The experiment is classed as cell-based. As to conditions: read-out: LUC EC50 (μM) hRORg.

A further experiment addresses T2, mouse RORγ (Mus musculus, UniProt P51450).
T2 construct: mouse, NM_011281.2 and from Ile251 to Lys516; expressed in transfected cells; host or cells: CHO cells (transient co-transfection with pG5-Luc reporter)
T2 sequence (P51450 251-516): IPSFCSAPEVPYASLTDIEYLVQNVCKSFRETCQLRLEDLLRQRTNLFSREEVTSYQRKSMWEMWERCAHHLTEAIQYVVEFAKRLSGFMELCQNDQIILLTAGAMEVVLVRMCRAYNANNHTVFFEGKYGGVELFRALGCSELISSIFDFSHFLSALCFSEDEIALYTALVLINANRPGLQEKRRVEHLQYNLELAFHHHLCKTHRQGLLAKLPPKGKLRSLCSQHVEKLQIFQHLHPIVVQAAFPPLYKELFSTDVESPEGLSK
Briefly: Luciferase reporter gene assay of inhibitory effect against RORγ transcriptional activity (GAL4-mRORγ plasmid in CHO cells). The experiment is classed as cell-based. As to conditions: read-out: LUC EC50 (μM) mRORg. In a few lines:
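CHO cells transiently co-transfected with GAL4-mouse RORγ LBD (Ile251–Lys516) and GAL4-dependent luciferase reporter; eight compound concentrations, 0.1% DMSO, 2 days at 37 °C. Luminescence as %-of-vehicle control; EC50 by curve fit, cytotoxic concentrations excluded.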
For orientation: Reporter assays use an easily measured gene product as a stand-in for the process of interest.

A value given as a limit tells only on which side of the number the result lay.

With `CC(=O)N1C[C@@H](C(=O)Nc2ccc(C)cc2C)[C@H](c2nnc(CCCC(C)(C)C)n2CC(F)(F)F)C1` [Example F-393], the EC50 on human RORγ and at mouse RORγ was > 3 µM each time.
On to `CC(=O)N1C[C@H](C(=O)Nc2ccc(C)cc2C)[C@@H](c2nnc(CCC3CCCCC3)n2C2CC2)C1` [Example F-402], for which the 50% effective concentration (EC50) at human RORγ and at mouse RORγ was < 3 µM each time.
On to `Cc1ccc(NC(=O)C[C@@H](c2nnc(CCCC(C)(C)C)n2C2CC2)N2CCCC2=O)c(C)c1` [Example F-403], for which the EC50 at human RORγ and on mouse RORγ was < 3 µM throughout.
For the compound `Cc1ccc(NC(=O)CCc2nnc(-c3ccc(CC(C)C)cc3)n2C2CC2)c(C)c1` [Example F-404], the EC50 on human RORγ and on mouse RORγ was < 3 µM in each case.
As to `Cc1ccc(NC(=O)CCc2nnc(-c3cc(CC(C)C)on3)n2C2CC2)c(C)c1` [Example F-405], the EC50 at human RORγ and on mouse RORγ was < 3 µM each time.
As to `CC(=O)N1C[C@H](C(=O)Nc2ccc(C)cc2C)[C@@H](c2nnc(-c3ccc(CC(C)C)cc3)n2C2CC2)C1` [Example F-406], the EC50 at human RORγ and on mouse RORγ was < 3 µM throughout.
For `CC(=O)N1C[C@@H](C(=O)Nc2ccc(C)cc2C)[C@H](c2nnc(-c3ccc(CC(C)C)cc3)n2C2CC2)C1` [Example F-407], the EC50 on human RORγ and on mouse RORγ was > 3 µM throughout.
In the case of `CC(=O)N1C[C@H](C(=O)Nc2ccc(C)cc2C)[C@@H](c2nnc(-c3cc(CC(C)C)on3)n2C2CC2)C1` [Example F-408], the concentration for a half-maximal effect (EC50) at human RORγ and at mouse RORγ was < 3 µM each time.
Consider `CC(=O)N1C[C@@H](C(=O)Nc2ccc(C)cc2C)[C@H](c2nnc(-c3cc(CC(C)C)on3)n2C2CC2)C1` [Example F-409], for which the EC50 at human RORγ and at mouse RORγ was > 3 µM each time.
Take `CC(=O)N1C[C@H](C(=O)Nc2ccc(C)cc2C)[C@@H](c2nnc(-c3ccc(C(C)C)cc3)n2C2CC2)C1` [Example F-411]: the EC50 at human RORγ and at mouse RORγ was < 3 µM in each case.
In the case of `Cc1ccc(NC(=O)CCc2nnc(C3CC4(CCCC4)C3)n2C2CC2)c(C)c1` [Example F-420], the EC50 at human RORγ and on mouse RORγ was < 3 µM in each case.
Take `Cc1ccc(NC(=O)CCc2nnc([C@H]3C[C@H](CC4CCCC4)C3)n2C2CC2)c(C)c1` [Example F-423]: the EC50 on human RORγ and at mouse RORγ was < 3 µM in each case.
With `Cc1ccc(NC(=O)CCc2nnc([C@H]3C[C@@H](CC4CCCC4)C3)n2C2CC2)c(C)c1` [Example F-424], the EC50 on human RORγ and on mouse RORγ was < 3 µM in each case.
In the case of `Cc1ccc(NC(=O)CCc2nnc([C@H]3C[C@H](CC(C)(C)C)C3)n2C2CC2)c(C)c1` [Example F-425], the EC50 at human RORγ and at mouse RORγ was < 3 µM in each case.
On to `Cc1ccc(NC(=O)CCc2nnc([C@H]3C[C@@H](CC(C)(C)C)C3)n2C2CC2)c(C)c1` [Example F-426], for which the EC50 at human RORγ and at mouse RORγ was < 3 µM throughout.
Regarding `CCOC(=O)CO[C@@H](CC(=O)Nc1ccc(C)cc1C)c1nnc([C@H]2C[C@@H](CC(C)C)C2)n1C1CC1` [Example F-433], the 50% effective concentration (EC50) at human RORγ and at mouse RORγ was < 3 µM each time.
As for `Cc1ccc(NC(=O)C[C@H](OCCO)c2nnc([C@H]3C[C@@H](CC(C)C)C3)n2C2CC2)c(C)c1` [Example F-434], the EC50 on human RORγ and at mouse RORγ was < 3 µM each time.
On to `Cc1ccc(NC(=O)CCc2nnc(-c3ccc(OC(C)C)cc3)n2C2CC2)c(C)c1` [Example F-441], for which the EC50 was > 3 µM at human RORγ and < 3 µM at mouse RORγ.
As for `Cc1ccc(NC(=O)CCc2nnc(-c3ccc(O)cc3)n2C2CC2)c(C)c1` [Example F-442], the EC50 on human RORγ and at mouse RORγ was > 3 µM throughout.
As to `Cc1ccc(NC(=O)CCc2nnn(CCC3CCCCC3)c2C2CC2)c(C)c1` [Example F-443], the EC50 on human RORγ and on mouse RORγ was < 3 µM throughout.
Regarding `Cc1ccc(NC(=O)CCc2nnc([C@H]3C[C@@H](CCC(C)C)C3)n2C2CC2)c(C)c1` [Example F-444], the EC50 on human RORγ and on mouse RORγ was < 3 µM throughout.
Take `CCC1(CC)CC(c2nnc(CCC(=O)Nc3ccc(C)cc3C)n2C2CC2)C1` [Example F-451]: the EC50 at human RORγ and on mouse RORγ was < 3 µM throughout.
For the compound `Cc1ccc(NC(=O)C[C@H](CCOCc2ccccc2)c2nnc([C@H]3C[C@@H](CC(C)C)C3)n2C2CC2)c(C)c1` [Example F-456], the EC50 on human RORγ and at mouse RORγ was < 3 µM in each case.
For the compound `Cc1ccc(NC(=O)C[C@H](CCO)c2nnc(-c3cc(CC(C)C)on3)n2C2CC2)c(C)c1` [Example F-457], the EC50 on human RORγ was < 3 µM; at mouse RORγ, > 3 µM.
On to `Cc1ccc(NC(=O)C[C@@H](CCO)c2nnc(-c3cc(CC(C)C)on3)n2C2CC2)c(C)c1` [Example F-458], for which the EC50 at human RORγ and at mouse RORγ was > 3 µM throughout.
With `C=CCOc1ccc(-c2nnc(CCC(=O)Nc3ccc(C)cc3C)n2C2CC2)cc1` [Example F-460], the concentration giving a half-maximal response (EC50) at human RORγ and at mouse RORγ was > 3 µM each time.
Consider `CC(=O)N1C[C@H](C(=O)Nc2ccc(C)cc2C)[C@@H](c2nnc([C@H]3C[C@@H](CC(C)(C)C)C3)n2C2CC2)C1` [Example F-461], for which the EC50 on human RORγ and at mouse RORγ was < 3 µM each time.
For the compound `CC(=O)N1C[C@@H](C(=O)Nc2ccc(C)cc2C)[C@H](c2nnc([C@H]3C[C@@H](CC(C)(C)C)C3)n2C2CC2)C1` [Example F-462], the EC50 on human RORγ and on mouse RORγ was < 3 µM throughout.
As to `CCCOc1ccc(-c2nnc(CCC(=O)Nc3ccc(C)cc3C)n2C2CC2)cc1` [Example F-463], the EC50 on human RORγ is > 3 µM; at mouse RORγ it was < 3 µM.
The like results for `Cc1ccc(NC(=O)C[C@@H](CC#N)c2nnc([C@H]3C[C@@H](CC(C)C)C3)n2C2CC2)c(C)c1` [Example F-464] were, in that order, > 3 µM and < 3 µM.
The like results for `Cc1ccc(NC(=O)C[C@H](CC#N)c2nnc([C@H]3C[C@@H](CC(C)C)C3)n2C2CC2)c(C)c1` [Example F-465] were, in that order, < 3 µM and < 3 µM.
The like results for `CC(=O)N1CC([C@@H](CC(=O)Nc2ccc(C)cc2C)c2nnc([C@H]3C[C@@H](CC(C)C)C3)n2C2CC2)C1` [Example F-466] were, in that order, < 3 µM and < 3 µM.
For `CC(=O)N1CC([C@H](CC(=O)Nc2ccc(C)cc2C)c2nnc([C@H]3C[C@@H](CC(C)C)C3)n2C2CC2)C1` [Example F-467], the EC50 at human RORγ and at mouse RORγ was > 3 µM each time.
As to `Cc1ccc(NC(=O)[C@H]2C[C@@H](O)C[C@@H]2c2nnc([C@H]3C[C@@H](CC(C)C)C3)n2C2CC2)c(C)c1` [Example F-470], the EC50 at human RORγ and at mouse RORγ was < 3 µM each time.
With `Cc1ccc(NC(=O)[C@@H]2C[C@H](O)C[C@H]2c2nnc([C@H]3C[C@@H](CC(C)C)C3)n2C2CC2)c(C)c1` [Example F-471], the EC50 on human RORγ and at mouse RORγ was > 3 µM each time.
As to `CC(=O)N1C[C@H](C(=O)Nc2ccc(C)cc2C)[C@@H](c2nnc(C3CC4(CCCCC4)C3)n2C2CC2)C1` [Example F-473], the EC50 at human RORγ and at mouse RORγ was < 3 µM in each case.
As to `CC(=O)N1C[C@@H](C(=O)Nc2ccc(C)cc2C)[C@H](c2nnc(C3CC4(CCCCC4)C3)n2C2CC2)C1` [Example F-474], the EC50 on human RORγ is > 3 µM; at mouse RORγ it was < 3 µM.
For `Cc1ccc(NC(=O)C[C@H](Cc2nccs2)c2nnc([C@H]3C[C@@H](CC(C)C)C3)n2C2CC2)c(C)c1` [Example F-475], the EC50 at human RORγ and on mouse RORγ was < 3 µM each time.
Take `Cc1ccc(NC(=O)C[C@@H](Cc2nccs2)c2nnc([C@H]3C[C@@H](CC(C)C)C3)n2C2CC2)c(C)c1` [Example F-476]: the EC50 on human RORγ and at mouse RORγ was < 3 µM throughout.
In the case of `Cc1ccc(NC(=O)C[C@H](CN2CC(=O)NC2=O)c2nnc([C@H]3C[C@@H](CC(C)C)C3)n2C2CC2)c(C)c1` [Example F-479], the EC50 on human RORγ and at mouse RORγ was < 3 µM each time.
For the compound `CNC(=O)CO[C@@H](CC(=O)Nc1ccc(C)cc1C)c1nnc([C@H]2C[C@@H](CC(C)C)C2)n1C1CC1` [Example F-480], the EC50 on human RORγ and on mouse RORγ was < 3 µM each time.
Consider `COCC(=O)NC[C@@H](CC(=O)Nc1ccc(C)cc1C)c1nnc([C@H]2C[C@@H](CC(C)C)C2)n1C1CC1` [Example F-487], for which the EC50 on human RORγ and on mouse RORγ was < 3 µM each time.
Turning to `Cc1ccc(NC(=O)C(C)C(CCOCc2ccccc2)c2nnc([C@H]3C[C@@H](CC(C)C)C3)n2C2CC2)c(C)c1` (stereo partly shown) [Example F-489], the EC50 was > 3 µM on human RORγ and < 3 µM at mouse RORγ.
For the compound `Cc1ccc(NC(=O)CCc2noc(CCC3CCCCC3)c2C2CC2)c(C)c1` [Example F-494], the concentration giving a half-maximal response (EC50) on human RORγ and at mouse RORγ was < 3 µM each time.

By EC50 is commonly meant the concentration needed to bring the measured effect to its halfway point.

For the origin of these results see patent publication US20160137639A1, “TRIAZOLE-ISOXAZOLE COMPOUND AND MEDICAL USE THEREOF” (JAPAN TOBACCO INC., priority 2012, published 2016).
